Measurements taken from patent publication US10772855B2, “N-bromotaurine solutions and emulsions against abnormal cells” (NASCO AD BIOTECHNOLOGY LABORATORY, priority 2016, dated 2020).
“Also recorded” adds a separate entry of the source.

How the values were obtained:
purulent leg ulcers = conditions: cited from earlier work
all cells tested = test: Proliferation rate of cells in medium containing NaOBr alone; assay type: cell-based
Protocol: The same accounts by later addition of Taurine to a 200 mM concentration in a 40 mM NBrT solution to cause enhancement of anti-proliferative effect against cancer cells. The enhancement of anti-proliferative effect against cancer cells is achieved by the use of the surplus of taurine present in the solution that is thereafter reacting with a later addition of 40 μM NaOBr solution at 24, 48 and 72 hours of in vitro incubation of cancer cells. That is, with a 1% addition of 40 μM NaOBr solution in total volume of cell cultures at 24, 48 and 72 hours, i.e. 0.4 μM NaOBr, favorable circumstances for fresh NBrT synthesis are made in order to contribute to reaction against abnormally hyper-proliferative cells. […] Normally proliferating cell lines show an evident decrease in their proliferative ability when grown at concentrations of NBrT above 250 μM. It has to be noted that all cells tested are not affected in their proliferation rate when growing in the same medium containing 0.4-40 μM NaOBr. In general, in order to achieve acceleration of anti-proliferative effect on hyper-proliferating cells without causing damage on proliferation of normal cells the concentration of NBrT in solution is 1:5 the concentration of estimated Taurine and the addition of NaOBr solution at latter stages of treatment is 1:100 the concentration of NBrT and 1:500 the concentration of Taurine. […]

[1] = system: hyper-proliferating cell lines A549, PC3, HeLa, MDA-MB 231, HepG2; test: Proliferation assays, statements for all cancer cell lines together; assay type: cell-based; conditions: for enhancement of anti-proliferative effect against cancer cells as single parameter in NBrT solutions: surplus of taurine or later addition of NaOBr alone, NBrT 62.5-250 μM
Protocol: The same accounts by later addition of Taurine to a 200 mM concentration in a 40 mM NBrT solution to cause enhancement of anti-proliferative effect against cancer cells. The enhancement of anti-proliferative effect against cancer cells is achieved by the use of the surplus of taurine present in the solution that is thereafter reacting with a later addition of 40 μM NaOBr solution at 24, 48 and 72 hours of in vitro incubation of cancer cells. That is, with a 1% addition of 40 μM NaOBr solution in total volume of cell cultures at 24, 48 and 72 hours, i.e. 0.4 μM NaOBr, favorable circumstances for fresh NBrT synthesis are made in order to contribute to reaction against abnormally hyper-proliferative cells. […] Normally proliferating cell lines show an evident decrease in their proliferative ability when grown at concentrations of NBrT above 250 μM. It has to be noted that all cells tested are not affected in their proliferation rate when growing in the same medium containing 0.4-40 μM NaOBr. In general, in order to achieve acceleration of anti-proliferative effect on hyper-proliferating cells without causing damage on proliferation of normal cells the concentration of NBrT in solution is 1:5 the concentration of estimated Taurine and the addition of NaOBr solution at latter stages of treatment is 1:100 the concentration of NBrT and 1:500 the concentration of Taurine.
Following, a more detailed description of the enhancement of the anti-proliferative effect obtained with the methodology of this invention, having the aqueous solutions of NBrT/taurine, is given. Stock solution of 4 mM NBrT/20 mM taurine was diluted in final concentrations of 62.5, 125, 250 μM NBrT and 312.5, 625, 1250 μM taurine, respectively, in culture medium DMEM/10% FBS.
(§1) During cell cultivation NaOBr solutions of 62.5 mM, 125 mM and 250 mM were added in 1:100 dilution to the corresponded 62.5, 125, and 250 μM NBrT and 312.5, 625, 1250 μM taurine every 24/48/72 hours. The calculation of the increase of anti-proliferative activity in cancer cells with the methodology of this invention was made in comparison to the rate of anti-proliferative effect that solutions of NBrT exert in final concentrations of 62.5, 125 and 250 μM in the same cultivation medium. The effect of NBrT/taurine solutions with latter addition of NaOBr, namely the solutions of this present invention were compared with effect obtained by NBrT solutions without a surplus of Taurine and without latter addition of NaOBr using the same cell lines in the same experiment. […] The anti-proliferative effect on all cell cultures was measured as a means of cellular viability by Optical Density at 595 nm using a Tecan reader using a crystal violet reagent. All experiments were performed in triplicate and mean values were used.

[2] = system: fibroblast-like synoviocytes; conditions: fibroblast-like synoviocytes that participate in rheumatoid arthritis; cited from earlier work
[3] = system: cancer cell lines A549, PC3, MDA-MB 231, HeLa, HepG2; test: Anti-proliferative effect of stored versus fresh NBrT aqueous solutions; assay type: cell-based; conditions: aqueous solution in double distilled water or PBS left for 15, 30 or 45 days at room temperature or 4° C.; all cancer cell lines tested
Protocol: During studies on NBrT anti-proliferative effect against cancer cells, aqueous solutions of NBrT in double distilled water or phosphate buffered saline where left for 15, 30 and 45 days in room temperature or at 4° C. The anti-proliferative effect of NBrT solutions was decreased by 30-40% each time a respective solution was tested that was left for 15, 30 or 45 days since time of production in comparison with the results of the anti-proliferative effect obtained from the same but fresh solution of NBrT, tested at the same day of production. The same results were noticed in all cancer cell lines tested (A549, PC3, MDA-MB 231, HeLa, and HepG2). The loss of anti-proliferative effect of the aqueous solutions of NBrT (15, 30, 45 days) was tightly connected with the loss of corresponding absorbance at 286 nm having as a reference that a solution of 10 mM NBrT has a peak at 430M^−1 cm^−1 at day of production.

[4] = system: HLF-1 (Normal fibroblast - control); test: Proliferation assay (cellular viability, crystal violet, OD 595 nm), normal fibroblast control; assay type: cell-based; conditions: NBrT concentration range of 12.5-40 μM; surplus of taurine, later addition of NaOBr at 24, 48 and 72 hours
Description: (§2) Following, a more detailed description of the enhancement of the anti-proliferative effect obtained with the methodology of this invention, having the aqueous solutions of NBrT/taurine, is given. […]
as §1, with “The” for “During cell cultivation NaOBr solutions of 62.5 mM, 125 mM and 250 mM were added in 1:100 dilution to the corresponded 62.5, 125, and 250 μM NBrT and 312.5, 625, 1250 μM taurine every 24/48/72 hours. The”, “of anti-proliferative effect that solutions of NBrT exert in final concentrations of 62.5, 125 and 250 μM in the same cultivation medium.” left out

[5] = system: (Normal fibroblast - control); test: as above; assay type: cell-based; conditions: human
Description: as §2
as §1, with “The” for “During cell cultivation NaOBr solutions of 62.5 mM, 125 mM and 250 mM were added in 1:100 dilution to the corresponded 62.5, 125, and 250 μM NBrT and 312.5, 625, 1250 μM taurine every 24/48/72 hours. The”, “of anti-proliferative effect that solutions of NBrT exert in final concentrations of 62.5, 125 and 250 μM in the same cultivation medium.” left out

[6] = system: skin of patients with acne vulgaris; conditions: NBrT up to 5 mM applied onto the skin of patients; cited from earlier work
[7] = system: Prostaglandin E2 production; conditions: via Heme Oxygenase; cited from earlier work

For `O=S(=O)(O)CCNCl` [NCT, N-Chlorotaurine], the tolerability and toxicity (purulent leg ulcers; applied locally onto patient's wounds) is given as “increased tolerability, low toxicity” and the “efficacy against purulent leg ulcers” value (purulent leg ulcers; phase II clinical study) is given as “significant results against purulent leg ulcers”.
In the case of `[Na+].[O-]Br` [NaOBr], the “proliferation rate of all cells tested” value (all cells tested; medium containing 0.4-4 μM NaOBr) is reported as “not affected”, the “proliferation rate of all cells tested” value (all cells tested; medium containing 0.4-40 μM NaOBr) is reported as “not affected” and the “enhancement of anti-proliferative effect against cancer cells as single parameter in NBrT solutions” value (“enhancement of anti-proliferative effect” for short) [1] is reported as “do not exert any enhancement; also recorded: do not confer enhancement”.
For `O=S(=O)(O)CCNBr` [NBrT, N-bromotaurine], the “IL6 and inflammatory mediators (PEG2)” value [2] is listed as “inhibit”, the “decrease of anti-proliferative effect in comparison with the same but fresh solution” value [3] is listed as 30-40% and the “effect on normally proliferating fibroblast cell line HFL-1” value [4] is listed as “literally no effect”. For the same compound, the “NBrT concentration at which normally proliferating cell lines show an evident decrease in their proliferative ability” value [5] was “above 250 μM”, the “side effects on skin” value [6] was “literally no side effect” and the “Prostaglandin E2 production (eicosanoid PGE2)” value [7] was “inhibition of Prostaglandin E2 production”. For the same compound, the “anti-proliferative effect on all hyper-proliferating cell lines tested” value ([1]; surplus of taurine and later addition of NaOBr at 24, 48 and 72 hours) was “accelerating anti-proliferative effect”.
With `NCCS(=O)(=O)O` [Taurine] the “enhancement of anti-proliferative effect” value [1] was “do not exert any enhancement” and the “enhancement of anti-proliferative effect” value ([1]; listed as taurine) was “do not confer enhancement”.
